Measured values: patent publication US8946142B2, “Beta-arrestin effectors and compositions and methods of use thereof” (Trevena, Inc., priority 2012, dated 2015)
Where two headings read alike, the source gives them in different places. Where a SMILES comes first, the peptide text is derived from it. Bridges are numbered along the chain shown (N, C = ends). [ ]: non-standard residue; d: D form. The star is where a group is joined. Val(3-OH) = CC(C)(O)[C@H](N)C(=O)O; Tle = CC(C)(C)[C@H](N)C(=O)O; Ac6c = NC1(C(=O)O)CCCCC1; NHCH2tBu = CC(C)(C)CN*; Aib = CC(C)(N)C(=O)O; Sar = CNCC(=O)O

Columns and labels:
human AT1R = biological target: T1, human AT1R (Homo sapiens, UniProt P30556); assay: beta-arrestin2 recruitment assay (PathHunter), human AT1R; assay type: cell-based; details: for Emax: 1 h, read-out: Span (relative to hAngII)
T1 sequence (P30556 1-359): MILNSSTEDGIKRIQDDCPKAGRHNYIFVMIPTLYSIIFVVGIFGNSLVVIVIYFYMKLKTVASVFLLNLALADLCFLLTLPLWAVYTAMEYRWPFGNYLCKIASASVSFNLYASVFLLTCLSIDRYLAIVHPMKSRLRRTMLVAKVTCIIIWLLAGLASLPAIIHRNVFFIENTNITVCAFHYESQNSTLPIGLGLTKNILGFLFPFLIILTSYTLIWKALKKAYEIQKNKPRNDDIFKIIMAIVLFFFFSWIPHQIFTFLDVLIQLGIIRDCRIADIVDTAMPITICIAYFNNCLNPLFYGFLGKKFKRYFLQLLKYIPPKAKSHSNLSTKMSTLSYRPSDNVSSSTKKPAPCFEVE
Protocol: (§1) The proximal event in β-arrestin function mediated by GPCRs is recruitment to receptors following ligand binding and receptor phosphorylation by GRK's. Thus, the measure of β-arrestin recruitment was used to determine ligand efficacy for β-arrestin function.
(§2) B-arrestin-2 recruitment to the human and rat angiotensin 2 type 1 receptor (human AT1R and rat AT1aR, respectively) was measured with the PathHunter™ μl-arrestin assay (DiscoveRx Corporation, Fremont Calif.). Cells, plasmid(s), and detection reagent(s) were purchased from DiscoveRx, and assays were performed per manufacturer's instructions. Human AT1R and rat AT1aR were cloned into the pCMV-ProLink vector, verified by sequencing, and transfected into PathHunter β-arrestin HEK293 cells. Stably transfected clonal cell lines were selected with Hygromycin and G418. These clonal cell lines were used for all experiments.
(§3) For assays, 4,000-8,000 cells were seeded per well in 384-well microplates “HiBase” small-volume plate in volumes of 20 uL and grown overnight in the incubator (37° C., 5% CO2, saturated humidity). Peptides were dissolved in DMSO to a concentration of 10 mM. Peptides were then further diluted in assay buffer (Hank's balanced salt solution with 20 mM HEPES) to add peptide to the cells to reach final concentrations ranging from 100 μM to 1 pM. Cells were then incubated for 60 minutes at 37° C. in 5% CO2, followed by addition of 2 μL of PathHunter Detection Reagent to each well. The microplates were then incubated at room temperature for 60 minutes, and then luminescence was measured using a PHERAstar Plus microplate reader from BMG Labtech. B-arrestin-2 recruitment to receptors was measured as relative luminescence intensity expressed in arbitrary units.

rat AT1aR = biological target: T2, rat AT1aR (Rattus norvegicus, UniProt P25095); assay: beta-arrestin2 recruitment assay (PathHunter), rat AT1aR; assay type: cell-based; details: for Emax: 1 h, read-out: Span (relative to hAngII)
T2 sequence (P25095 1-359): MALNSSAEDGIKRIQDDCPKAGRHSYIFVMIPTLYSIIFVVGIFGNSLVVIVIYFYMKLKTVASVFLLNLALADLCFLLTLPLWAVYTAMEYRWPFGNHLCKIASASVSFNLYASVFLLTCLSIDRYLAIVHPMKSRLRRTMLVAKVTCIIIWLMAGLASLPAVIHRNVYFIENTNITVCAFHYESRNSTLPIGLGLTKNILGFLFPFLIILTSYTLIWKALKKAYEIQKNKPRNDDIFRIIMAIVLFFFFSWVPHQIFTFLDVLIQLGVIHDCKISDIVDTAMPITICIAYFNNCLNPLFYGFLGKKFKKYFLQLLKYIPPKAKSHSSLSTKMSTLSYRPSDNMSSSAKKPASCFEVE
Protocol: as §1, §2, §3

Emax (human AT1R) [%]	EC50 (human AT1R; read-out: EC50) [nM]	EC50 (human AT1R; read-out: pEC50 (converted)) [nM]	Emax (rat AT1aR) [%]	EC50 (rat AT1aR; read-out: EC50) [nM]	EC50 (rat AT1aR; read-out: pEC50 (converted)) [nM]	Compound
< 101	> 3.2	> 3.16	< 105	> 3.2	> 3.16	CNCC(=O)N[C@@H](CCCNC(=N)N)C(=O)N[C@H](C(=O)N[C@@H](Cc1ccc(O)cc1)C(=O)N[C@H](C(=O)N[C@@H](Cc1c[nH]cn1)C(=O)N1CCC[C@H]1C(=O)N[C@H](C(=O)O)C(C)C)C(C)(C)C)C(C)C [SEQ ID NO: 29, Sar-Arg-Val-Tyr-AA02-His-Pro-Val] (H-[Sar]RVY[Tle]HPV-OH)
< 101	> 3.2	> 3.16	< 105	> 3.2	> 3.16	CNCC(=O)N[C@@H](CCCNC(=N)N)C(=O)N[C@H](C(=O)N[C@@H](Cc1ccc(O)cc1)C(=O)N[C@H](C(=O)N[C@@H](Cc1c[nH]cn1)C(=O)N1CCC[C@H]1C(=O)N[C@H](C(=O)O)[C@@H](C)O)C(C)(C)C)C(C)C [SEQ ID NO: 30, Sar-Arg-Val-Tyr-AA02-His-Pro-Thr] (H-[Sar]RVY[Tle]HPT-OH)
< 101	> 3.2	> 3.16	< 105	> 3.2	> 3.16	CNCC(=O)N[C@@H](CCCNC(=N)N)C(=O)N[C@H](C(=O)N[C@@H](Cc1ccc(O)cc1)C(=O)NC1(C(=O)N[C@@H](Cc2c[nH]cn2)C(=O)N2CCC[C@H]2C(=O)N[C@H](C(=O)O)C(C)(C)O)CCCCC1)C(C)C [SEQ ID NO: 31, Sar-Arg-Val-Tyr-cyHex-His-Pro-AA03] (H-[Sar]RVY[Ac6c]HP[Val(3-OH)]-OH)
< 101	> 3.2	> 3.16	< 105	> 3.2	> 3.16	CNCC(=O)N[C@@H](CCCNC(=N)N)C(=O)N[C@H](C(=O)N[C@@H](Cc1ccc(O)cc1)C(=O)NC1(C(=O)N[C@@H](Cc2c[nH]cn2)C(=O)N2CCC[C@H]2C(=O)NCC(=O)O)CCCCC1)C(C)C [SEQ ID NO: 32, Sar-Arg-Val-Tyr-cyHex-His-Pro-Gly] (H-[Sar]RVY[Ac6c]HPG-OH)
< 101	> 3.2	> 3.16	< 105	> 3.2	> 3.16	CNCC(=O)N[C@@H](CCCNC(=N)N)C(=O)N[C@H](C(=O)N[C@@H](Cc1ccc(O)cc1)C(=O)NC1(C(=O)N[C@@H](Cc2c[nH]cn2)C(=O)N2CCC[C@H]2C(=O)N[C@@H](CS)C(=O)O)CCCCC1)C(C)C [SEQ ID NO: 34, Sar-Arg-Val-Tyr-cyHex-His-Pro-Cys] (H-[Sar]RVY[Ac6c]HPC-OH)
< 101	> 3.2	> 3.16	< 105	> 3.2	> 3.16	CNCC(=O)N[C@@H](CCCNC(=N)N)C(=O)N[C@H](C(=O)N[C@@H](Cc1ccc(O)cc1)C(=O)NC1(C(=O)N[C@@H](Cc2c[nH]cn2)C(=O)N2CCC[C@H]2C(=O)NC(C)(C)C(=O)O)CCCCC1)C(C)C [SEQ ID NO: 35, Sar-Arg-Val-Tyr-cyHex-His-Pro-AA01] (H-[Sar]RVY[Ac6c]HP[Aib]-OH)
< 101	> 3.2	> 3.16	< 105	> 3.2	> 3.16	CNCC(=O)N[C@@H](CCCNC(=N)N)C(=O)N[C@H](C(=O)N[C@@H](Cc1ccc(O)cc1)C(=O)NC1(C(=O)N[C@@H](Cc2c[nH]cn2)C(=O)N2CCC[C@H]2C(=O)N[C@@H](CC(N)=O)C(=O)O)CCCCC1)C(C)C [SEQ ID NO: 36, Sar-Arg-Val-Tyr-cyHex-His-Pro-Asn] (H-[Sar]RVY[Ac6c]HPN-OH)
< 101	> 3.2	> 3.16	< 105	> 3.2	> 3.16	CNCC(=O)N[C@@H](CCCNC(=N)N)C(=O)N[C@H](C(=O)N[C@@H](Cc1ccc(O)cc1)C(=O)NC(C)(C)C(=O)N[C@@H](Cc1c[nH]cn1)C(=O)N1CCC[C@H]1C(=O)N[C@H](C(=O)O)[C@@H](C)O)C(C)C [SEQ ID NO: 40, Sar-Arg-Val-Tyr-AA01-His-Pro-Thr] (H-[Sar]RVY[Aib]HPT-OH)
< 101	> 3.2	> 3.16	< 105	> 3.2	> 3.16	CNCC(=O)N[C@@H](CCCNC(=N)N)C(=O)N[C@H](C(=O)N[C@@H](Cc1ccc(O)cc1)C(=O)NC1(C(=O)N[C@@H](Cc2c[nH]cn2)C(=O)N2CCC[C@H]2C(=O)O)CCCCC1)C(C)C [SEQ ID NO: 41, Sar-Arg-Val-Tyr-cyHex-His-Pro] (H-[Sar]RVY[Ac6c]HP-OH)
< 101	> 3.2	> 3.16	< 105	> 3.2	> 3.16	CNCC(=O)N[C@@H](CCCNC(=N)N)C(=O)N[C@H](C(=O)N[C@@H](Cc1ccc(O)cc1)C(=O)NC1(C(=O)N[C@@H](Cc2c[nH]cn2)C(=O)N2CCC[C@H]2C(=O)N[C@@H](CCC(=O)O)C(=O)O)CCCCC1)C(C)C [SEQ ID NO: 43, Sar-Arg-Val-Tyr-cyHex-His-Pro-Glu] (H-[Sar]RVY[Ac6c]HPE-OH)
< 101	> 3.2	> 3.16	–	–	–	CNCC(=O)N[C@@H](CCCNC(=N)N)C(=O)N[C@H](C(=O)N[C@@H](Cc1ccc(O)cc1)C(=O)NC1(C(=O)N[C@@H](Cc2c[nH]cn2)C(=O)N2CCC[C@H]2C(=O)NCC(C)(C)C)CCCCC1)C(C)C [SEQ ID NO: 47, Sar-Arg-Val-Tyr-cyHex-His-Pro-NH-neopentyl] (H-[Sar]RVY[Ac6c]HP-NHCH2tBu)
< 101	> 3.2	> 3.16	< 105	> 3.2	> 3.16	CCNC(=O)[C@@H]1CCCN1C(=O)[C@H](Cc1c[nH]cn1)NC(=O)C1(NC(=O)[C@H](Cc2ccc(O)cc2)NC(=O)[C@@H](NC(=O)[C@H](CCCNC(=N)N)NC(=O)CNC)C(C)C)CCCCC1 [SEQ ID NO: 48, Sar-Arg-Val-Tyr-cyHex-His-Pro-NH-ethyl] (H-[Sar]RVY[Ac6c]HP-NHEt)
< 101	> 3.2	> 3.16	< 105	> 3.2	> 3.16	CNCC(=O)N[C@@H](CCCNC(=N)N)C(=O)N[C@H](C(=O)N[C@@H](Cc1ccc(O)cc1)C(=O)NC1(C(=O)N[C@@H](Cc2c[nH]cn2)C(=O)N2CCC[C@H]2C(=O)NC)CCCCC1)C(C)C [SEQ ID NO: 49, Sar-Arg-Val-Tyr-cyHex-His-Pro-NH-methyl] (H-[Sar]RVY[Ac6c]HP-NHMe)
< 101	> 3.2	> 3.16	< 105	> 3.2	> 3.16	CNCC(=O)N[C@@H](CCCNC(=N)N)C(=O)N[C@H](C(=O)N[C@@H](Cc1ccc(O)cc1)C(=O)NC1(C(=O)N[C@@H](Cc2c[nH]cn2)C(=O)N2CCC[C@H]2C(=O)N[C@@H](CCCCN)C(=O)O)CCCCC1)C(C)C [SEQ ID NO: 50, Sar-Arg-Val-Tyr-cyHex-His-Pro-Lys] (H-[Sar]RVY[Ac6c]HPK-OH)
< 101	–	–	< 105	–	–	CC[C@H](C)[C@@H]1NC(=O)[C@H](NC(=O)[C@@H](NC(=O)[C@H](CCCNC(=N)N)NC(=O)CNC)C(C)C)CSSC[C@@H](C(=O)N[C@H](C)C(=O)O)NC(=O)[C@H](Cc2c[nH]cn2)NC1=O [SEQ ID NO: 52, Sar-Arg-Val-D-Cys-Ile-His-Cys-D-Ala] (H-[Sar]RV[dC]IHC[dA]-OH; disulfide 4-7; N-terminus and C-terminus assumed)
